How the values were obtained:
[1] = test system: Tetranychus urticae; experiment: Two-spotted mite acaricidal test on pinto bean plants; format: in vivo, two-spotted mite Tetranychus urticae (Koch); details: percent concentration in solution, 5-7 days; for LC50 2-SM A: adults; for LC50 2-SM E: eggs
Description: Acaricidal Evaluation Test
The two-spotted mite (2SM) [Tetranychus urticae (Koch)]was employed in tests for miticides. The test procedure was as follows:
Pinto bean plants (Phaseolus sp.) approximately 10 cm tall, were transplanted into sandy loam soil in small cups and thoroughly infested with two-spotted mites of mixed ages and sexes. Twenty-four hours later the infested plants were inverted and dipped for 2-3 seconds in 50--50 acetone-water solutions of the test compound. Treated plants were held in the greenhouse, and 5-7 days later mortality was determined for both adult mites and the nymphs hatching from eggs which were on the plants at the time of treatment. Test concentrations ranged from 0.05% downward. The LC-50 value is expressed below in Table II under the headings "2SM-A" (i.e., adults) and "2SM-E" (i.e. eggs) in terms of percent concentration of the test compound in the solution.

[2] = test system: Heliothis virescens; experiment: Tobacco budworm egg dip test; format: in vivo, Tobacco Budworm Heliothis virescens (Fabricius); details: 2-day old eggs (TBW-E), percent of test compound in solution
Description: (§1) The compounds in Table I above were tested for insecticidal activity using the following testing procedures. LC50 values, based on the results of these tests and calculated according to dosage-mortality curves, are expressed in Table II.
Tobacco Budworm Heliothis virescens (Fabricius)
Eggs: Paper towel patches of 2-day old eggs of the tobacco budworm were dipped in acetone solutions of the test compound and placed in petri dishes containing a portion of larval rearing medium. Treated eggs were maintained at 78° F. and mortality was recorded after all control eggs had hatched and the young larvae were feeding on the media. Test concentrations ranged from 0.1% downward. The LC-50 value is expressed below in Table II under the heading "TBW-E" in terms of percent of the test compound in the solution.

[3] = test system: Musca domestica; experiment: Housefly contact test, mortality after 48 hours; format: in vivo, Housefly Musca domestica; details: μg of the test compound per 25 female flies
Description: as §1
The test compound was diluted in acetone and aliquots pipetted onto the bottom of aluminum dishes. To ensure even spreading of the chemical on the bottom of the dishes, 1 ml of acetone containing 0.01% peanut oil was also added to each dish. After all solvents had evaporated, the dishes were placed in circular cardboard cages containing 25 female houseflies, 1-2 days old. The cages were covered on the bottom with cellophane and on the top with tulle netting, and each contained a sugar-water saturated cotton plug for maintenance of the flies. Mortality was recorded after 48 hours. Test levels ranged from 100 μg/25 female houseflies downward. The LC-50 value is expressed below in Table II under the heading "HF", in terms of μg of the test compound per 25 female flies.

[4] = test system: Diabrotica undecimpunctata undecimpunctata; experiment: Western spotted cucumber beetle larvae soil test; format: in vivo; details: Diabrotica eggs/larvae; ppm of the test compound in the soil
Description: as §1
Western Spotted Cucumber Beetle Larvae Diabrotica undecimpunctata undecimpunctata (Mannherheim)
Ten grams of moist potting soil was placed in a plastic cup. The test compound was dissolved in acetone. A 0.05 ml aliquot of the test sample, diluted to the desired concentration, was added to the soil. The cup was capped and the soil was mixed on a vortex mixer for approximately 15 seconds. An indentation was made on the surface of the soil and approximately 50 Diabrotica eggs were added. The eggs were covered with soil and maintained at room temperature (approximately 70° F. or 21° C.). Four days later a section of Romaine lettuce (Latuca sativa) leaf was placed in the treated cups. One week later the cups were examined for live larvae. Test concentrations ranged from 25 ppm downward. The LC-50 value is expressed below in Table II under the heading "Diabrotica" in terms of ppm of the test compound in the soil.

[5] = test system: Aphis fabae; experiment: Black bean aphid spray test on nasturtium plants, mortality after 48 hours; format: in vivo, Black Bean Aphid Aphis fabae (Scop.); details: mixed ages, percent of test compound in sprayed solution
Description: as §1
Black Bean Aphid Aphis fabae (Scop.)
Nasturtium plants (Tropaeolum sp.) approximately 5 cm tall, were transplanted into sandy loam soil in small cups and infested with 25-50 black bean aphids of mixed ages. Twenty-four hours later they were sprayed to the point of runoff with 50--50 acetone-water solutions of the test compound. Treated plants were held in the greenhouse and mortality was recorded after 48 hours. Test concentrations ranged from 0.05% downward. The LC-50 value is expressed below in Table II under the heading "BA" in terms of percent of the test compound in the sprayed solution.

[6] = test system: Trichoplusia ni; experiment: Cabbage looper larvae leaf-dip test; format: in vivo, Cabbage Looper Trichoplusia ni (Hubner); details: second instar larvae, percent of test compound in solution, 3-5 days
Description: as §1
Cabbage Looper Trichoplusia ni (Hubner)
The test compound was diluted in a 50--50 acetone-water solution Cotyledons of hyzini squash (Calabacita abobrinha), approximately 1×1.5 inches, were immersed in the test solutions for 2-3 seconds and placed on a wire screen to dry. The dried leaves were p1aced in petri dishes containing a moistened piece of filter paper and infested with 5 secondinstar cabbage looper larvae. The dishes were placed in a high humidity chamber. Mortality of the larvae was recorded 3-5 days later. Test concentrations ranged from 0.1% downward. The LC-50 value is expressed below in Table II under the heading "CL" in terms of percent of the test compound in solution.

Compound	LC50 2-SM A [1]	LC50 2-SM E [1]	LC50 TBW [2]	LC50 HF [3]	LC50 Diabrotica [4]	LC50 BA [5]	LC50 CL [6]
CC(C)C(=Nc1ccc(Cl)nc1)OCc1cccc(Oc2ccccc2)c1 [Compound 1, N-(6-Chloro-3-pyridyl)-0-(3-phenoxybenzyl)isobutyrylimidate]	> 0.05%	> 0.05%	0.04%	5.5 µg	> 25 ppm	0.001%	0.005%
CC(C)C(=Nc1ccc(Cl)nc1Cl)OCc1cccc(Oc2ccccc2)c1 [Compound 2]	> 0.05%	> 0.05%	0.075%	18 µg	> 25 ppm	0.003%	0.0027%
COc1ccc(N=C(OCc2cccc(Oc3ccccc3)c2)C(C)C)cn1 [Compound 3]	> 0.05%	> 0.05%	> 0.1%	7 µg	> 25 ppm	0.003%	0.0075%
CC(C)C(=Nc1ccc(C(F)(F)F)cn1)OCc1cccc(Oc2ccccc2)c1 [Compound 4]	> 0.05%	> 0.05%	> 0.1%	42 µg	> 25 ppm	0.05%	0.008%
CC(C)C(=Nc1ccc(F)nc1)OCc1cccc(Oc2ccccc2)c1 [Compound 5]	> 0.05%	> 0.05%	0.09%	8 µg	> 25 ppm	0.003%	0.008%
CC(C)C(=Nc1c(F)c(F)nc(F)c1F)OCc1cccc(Oc2ccccc2)c1 [Compound 6]	> 0.05%	> 0.05%	> 0.1%	> 100 µg	> 25 ppm	> 0.05%	0.004%
Clc1ccc(N=C(OCc2cccc(Oc3ccccc3)c2)C2CC2)cn1 [Compound 7]	> 0.05%	> 0.05%	> 0.1%	> 100 µg	> 25 ppm	> 0.05%	0.022%
Cc1cc(N=C(OCc2cccc(Oc3ccccc3)c2)C(C)C)no1 [Compound 8]	> 0.05%	> 0.05%	> 0.1%	> 100 µg	> 25 ppm	> 0.05%	0.1%
CC(C)(Cl)C(=Nc1nnc(C(F)(F)F)s1)OCc1cccc(Oc2ccccc2)c1 [Compound 9]	> 0.05%	> 0.05%	> 0.1%	> 100 µg	> 25 ppm	> 0.05%	0.035%
Cc1ccc(N=C(OCc2cccc(Oc3ccccc3)c2)C(C)C)cn1 [Compound 10]	> 0.05%	> 0.05%	> 0.1%	25 µg	–	0.05%	> 0.1%
CC(C)C(=Nc1ccc(Br)nc1)OCc1cccc(Oc2ccccc2)c1 [Compound 11]	> 0.05%	> 0.05%	> 0.1%	7 µg	–	0.01%	0.01%
CC(C)(Cl)C(=Nc1ccc(Br)nc1)OCc1cccc(Oc2ccccc2)c1 [Compound 12]	> 0.05%	> 0.05%	> 0.1%	12 µg	–	0.05%	0.02%
CC(C)C(=Nc1cncc(Br)c1)OCc1cccc(Oc2ccccc2)c1 [Compound 13]	–	–	> 0.1%	7 µg	–	> 0.05%	0.015%
COC(=O)c1ccc(N=C(OCc2cccc(Oc3ccccc3)c2)C(C)C)o1 [Compound 14]	> 0.05%	> 0.05%	> 0.1%	> 100 µg	> 25 ppm	> 0.05%	0.01%
COc1ccc(N=C(OCc2cccc(Oc3ccccc3)c2)C2CC2)cn1 [Compound 15]	> 0.05%	> 0.05%	> 0.1%	58 µg	> 25 ppm	> 0.05%	0.05%
CCCCc1nc2ccc(N=C(OCc3cccc(Oc4ccccc4)c3)C(C)C)cc2o1 [Compound 26]	> 0.05%	> 0.05%	> 0.1%	> 100 µg	–	0.05%	0.004%
CC(C)C(=Nc1ccc2nc(C(C)C)oc2c1)OCc1cccc(Oc2ccccc2)c1 [Compound 27]	> 0.05%	> 0.05%	> 0.1%	> 100 µg	–	> 0.05%	0.0035%
CC(C)C(=Nc1ccc2nc(-c3ccccc3)oc2c1)OCc1cccc(Oc2ccccc2)c1 [Compound 28]	> 0.05%	> 0.05%	> 0.1%	> 100 µg	> 25 ppm	> 0.05%	0.04%
CC(C)C(=Nc1ccc(Cl)nc1)SCc1cccc(Oc2ccc(F)cc2)c1 [Compound 29]	> 0.05%	> 0.05%	> 0.1%	> 100 µg	> 25 ppm	> 0.05%	0.025%
CC(C)C(=Nc1ccc(Cl)nc1)OCc1cccc(Oc2ccc(Cl)cc2)c1 [Compound 30]	> 0.05%	> 0.05%	0.1%	15 µg	> 25 ppm	> 0.05%	0.0007%
CC(C)C(=Nc1cc(C(F)(F)F)ccn1)OCc1cccc(Oc2ccc(F)cc2)c1 [Compound 36]	> 0.05%	> 0.05%	> 0.1%	> 100 µg	> 25 ppm	–	0.015%
CCOc1ccc(N=C(OCc2cccc(Oc3ccccc3)c2)C(C)C)cn1 [Compound 41]	> 0.05%	> 0.05%	> 0.1%	< 100 µg	> 25 ppm	> 0.05%	–

Reference: US4994473A, “Pyridyl containing insecticides” (ICI Americas Inc., priority 1988, dated 1991)
